“Also recorded” adds a separate entry of the source.
Assays:
ΔF508-CFTR = ΔF508-CFTR (Homo sapiens, UniProt P13569, DEL508-508); design: primary cultures of human bronchial epithelial cells isolated from subjects with CF; host or cells: primary human bronchial epithelial cells (Van Goor 2011); CF patients in a 28-day study (Clancy 2012); details: bronchial epithelial cells from CF subjects; cited from earlier work
mutant CFTR = target: T1, mutant CFTR (Homo sapiens, UniProt P13569, E92K); experiment: Ussing chamber forskolin-stimulated chloride transport in Fisher Rat Thyroid cells expressing CFTR mutants; assay type: cell-based; details: Corr4a 15 μM
T1 construct: expressed in transfected cells
T1 sequence (P13569 whole entry E92K): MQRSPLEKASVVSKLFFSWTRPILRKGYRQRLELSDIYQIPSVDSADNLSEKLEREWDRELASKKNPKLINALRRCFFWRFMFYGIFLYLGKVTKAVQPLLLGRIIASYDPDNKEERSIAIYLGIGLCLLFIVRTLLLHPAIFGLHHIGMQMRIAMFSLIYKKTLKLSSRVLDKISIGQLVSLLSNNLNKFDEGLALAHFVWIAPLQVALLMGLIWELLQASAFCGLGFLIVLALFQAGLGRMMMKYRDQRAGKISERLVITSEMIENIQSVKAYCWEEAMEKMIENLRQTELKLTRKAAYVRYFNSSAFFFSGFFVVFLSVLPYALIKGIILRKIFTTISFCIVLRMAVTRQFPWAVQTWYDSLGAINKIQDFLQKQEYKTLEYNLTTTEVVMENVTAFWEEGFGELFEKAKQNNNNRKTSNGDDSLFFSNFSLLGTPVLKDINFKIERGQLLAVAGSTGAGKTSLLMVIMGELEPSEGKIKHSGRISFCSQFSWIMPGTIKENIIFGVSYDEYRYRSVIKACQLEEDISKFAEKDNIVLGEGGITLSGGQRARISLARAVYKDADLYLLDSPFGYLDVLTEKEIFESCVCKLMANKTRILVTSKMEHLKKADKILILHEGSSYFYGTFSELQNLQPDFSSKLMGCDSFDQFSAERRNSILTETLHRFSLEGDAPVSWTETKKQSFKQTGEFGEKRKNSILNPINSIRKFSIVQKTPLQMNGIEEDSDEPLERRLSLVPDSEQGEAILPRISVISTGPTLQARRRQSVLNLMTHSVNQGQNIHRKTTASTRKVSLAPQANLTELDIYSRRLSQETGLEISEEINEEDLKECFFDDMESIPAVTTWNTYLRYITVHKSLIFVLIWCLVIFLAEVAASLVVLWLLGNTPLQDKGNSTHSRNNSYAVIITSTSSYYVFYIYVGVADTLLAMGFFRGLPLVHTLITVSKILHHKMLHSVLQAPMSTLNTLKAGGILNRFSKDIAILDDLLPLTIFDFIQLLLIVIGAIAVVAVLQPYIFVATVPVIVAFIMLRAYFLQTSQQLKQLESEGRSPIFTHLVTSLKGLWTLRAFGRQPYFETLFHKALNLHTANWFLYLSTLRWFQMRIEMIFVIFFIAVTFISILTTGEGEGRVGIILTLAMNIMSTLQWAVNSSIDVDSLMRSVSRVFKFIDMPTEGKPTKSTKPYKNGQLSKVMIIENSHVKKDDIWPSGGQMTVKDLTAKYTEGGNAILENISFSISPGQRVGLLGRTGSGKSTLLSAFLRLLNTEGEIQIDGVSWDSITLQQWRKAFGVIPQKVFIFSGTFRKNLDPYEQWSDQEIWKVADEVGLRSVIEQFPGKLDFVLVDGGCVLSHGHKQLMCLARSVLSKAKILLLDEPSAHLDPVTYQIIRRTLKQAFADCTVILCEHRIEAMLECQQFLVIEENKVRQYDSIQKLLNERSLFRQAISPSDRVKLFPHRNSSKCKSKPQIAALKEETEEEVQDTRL
Procedure: Ussing chamber techniques with Fisher Rat Thyroid cells that are stably transfected with the indicated form of CFTR are used to record the transepithelial current (IT) resulting from CFTR-mediated chloride transport (Van Goor, et al., 2009, PNAS, 106: 18825-30). Standard conditions for Ussing chamber electrophysiological with different forms of CFTR measured forskolin (10 μM)-stimulated chloride transport that peaked at 205.5 μA/cm2 for normal CFTR.

V232D-CFTR = V232D-CFTR (Homo sapiens, UniProt P13569, V232D); details: cited from earlier work
V232D-CFTR, sequence (P13569 whole entry V232D, the tested form may be a part): as the sequence (P13569 whole entry E92K) above, with K92E, V232D counted along it

[1] = target: T2, N-terminal CFTR fragments (Homo sapiens, UniProt P13569); experiment: Steady-state accumulation of CFTR fragments, western blot, HEK293 cells; assay type: cell-based; details: bortezomib 10 μM
T2 construct: Indicated CFTR fragments were generated via introduction of a stop codon after the specified residue; expressed in transfected cells; host or cells: HEK293, transient, pcDNA3.1(+)-CFTR derivatives
Procedure: Steady-state levels of CFTR and its mutants are determined by western blot analysis. HEK293 cells are transiently transfected with the indicated plasmids (Grove, et al., 2011, Mol Biol Cell, 22: 301-14). The transfected cells are allowed to recover for approximately 18 hrs before addition of DMEM and then supplemented with lumacaftor or DMSO (control). The cells are incubated with the correctors for 24 hrs before isolating the cells for western blot analysis. The harvested cells are diluted with 2×SDS sample buffer (100 mM Tris-HCl (pH 6.8)/4% SDS/0.05% Bromophenol Blue/20% glycerol), sonicated, and heated at 37° C. prior to resolving the proteins on SDS-PAGE gels. The proteins are transferred to nitrocellulose membranes and the membranes are probed with the designated antibodies. Tubulin is used to indicate loading controls.
A set of CFTR fragments with domain boundaries that permitted them to accumulate in unstable or stable states are expressed in HEK293 cells, and the effect of 5 μM lumacaftor on the accumulation of different fragments is determined. As a point of reference, the impact of the proteasome inhibitor bortezomib on CFTR fragment accumulation is also measured.
Cells are treated for 4 hours with bortezomib or 18 hours at 37° C. with lumacaftor. The amount of CFTR fragment accumulation is determined by immunoblot.
To identify regions of CFTR required for lumacaftor activity, different length CFTR fragments were expressed in HEK-293 cells and their steady-state accumulation and half-life were quantified in biochemical assays (FIGS. 1A and B; FIG. 2). Since CFTR folding initiates cotranslationally and channel assembly is completed post-translationally (Higgins, 1992, Annual Review of Cell Biology, 8:67-113), CFTR fragments which may resemble folding intermediates have been used to study CFTR biogenesis. The underlying rationale is that differences in accumulation or half-life between different length CFTR fragments are believed to reflect differences in the stability of the protein conformation and resistance to endoplasmic reticulum associated degradation (ERAD). […] Differences in accumulation and halflife of CFTR fragments have been used successfully to identify Hsp70- and calnexin-dependent steps in CFTR folding and degradation pathways (Farinha and Amaral, 2005, Mol Cell Biol, 25:5242-52; Lukacs and Verkman, […], EMBO Journal, 13:6076-86; Meacham et al., 1999, EMBO Journal, 18:1492-1505; Okiyoneda et al., 2004, Mol Biol Cell, 15:563-574), to identify defective interactions between MSD1, NBD1 and MSD2 as an underlying cause of premature degradation of ΔF508-CFTR (Cui et al., 2007, J Mol Biol, 365:981-994; Du and Lukacs, 2009, Molecular Biology of the Cell, 20:1903-1915; Younger et al., 2006, Cell, 126:571-582), and to identify MSD2 as the site of action of the CFTR corrector, Corr-4a.

[2] = compared to CFTR^430 and CFTR^653

ΔF508-CFTR, sequence (P13569 with tags, fused parts or gaps DEL508-508): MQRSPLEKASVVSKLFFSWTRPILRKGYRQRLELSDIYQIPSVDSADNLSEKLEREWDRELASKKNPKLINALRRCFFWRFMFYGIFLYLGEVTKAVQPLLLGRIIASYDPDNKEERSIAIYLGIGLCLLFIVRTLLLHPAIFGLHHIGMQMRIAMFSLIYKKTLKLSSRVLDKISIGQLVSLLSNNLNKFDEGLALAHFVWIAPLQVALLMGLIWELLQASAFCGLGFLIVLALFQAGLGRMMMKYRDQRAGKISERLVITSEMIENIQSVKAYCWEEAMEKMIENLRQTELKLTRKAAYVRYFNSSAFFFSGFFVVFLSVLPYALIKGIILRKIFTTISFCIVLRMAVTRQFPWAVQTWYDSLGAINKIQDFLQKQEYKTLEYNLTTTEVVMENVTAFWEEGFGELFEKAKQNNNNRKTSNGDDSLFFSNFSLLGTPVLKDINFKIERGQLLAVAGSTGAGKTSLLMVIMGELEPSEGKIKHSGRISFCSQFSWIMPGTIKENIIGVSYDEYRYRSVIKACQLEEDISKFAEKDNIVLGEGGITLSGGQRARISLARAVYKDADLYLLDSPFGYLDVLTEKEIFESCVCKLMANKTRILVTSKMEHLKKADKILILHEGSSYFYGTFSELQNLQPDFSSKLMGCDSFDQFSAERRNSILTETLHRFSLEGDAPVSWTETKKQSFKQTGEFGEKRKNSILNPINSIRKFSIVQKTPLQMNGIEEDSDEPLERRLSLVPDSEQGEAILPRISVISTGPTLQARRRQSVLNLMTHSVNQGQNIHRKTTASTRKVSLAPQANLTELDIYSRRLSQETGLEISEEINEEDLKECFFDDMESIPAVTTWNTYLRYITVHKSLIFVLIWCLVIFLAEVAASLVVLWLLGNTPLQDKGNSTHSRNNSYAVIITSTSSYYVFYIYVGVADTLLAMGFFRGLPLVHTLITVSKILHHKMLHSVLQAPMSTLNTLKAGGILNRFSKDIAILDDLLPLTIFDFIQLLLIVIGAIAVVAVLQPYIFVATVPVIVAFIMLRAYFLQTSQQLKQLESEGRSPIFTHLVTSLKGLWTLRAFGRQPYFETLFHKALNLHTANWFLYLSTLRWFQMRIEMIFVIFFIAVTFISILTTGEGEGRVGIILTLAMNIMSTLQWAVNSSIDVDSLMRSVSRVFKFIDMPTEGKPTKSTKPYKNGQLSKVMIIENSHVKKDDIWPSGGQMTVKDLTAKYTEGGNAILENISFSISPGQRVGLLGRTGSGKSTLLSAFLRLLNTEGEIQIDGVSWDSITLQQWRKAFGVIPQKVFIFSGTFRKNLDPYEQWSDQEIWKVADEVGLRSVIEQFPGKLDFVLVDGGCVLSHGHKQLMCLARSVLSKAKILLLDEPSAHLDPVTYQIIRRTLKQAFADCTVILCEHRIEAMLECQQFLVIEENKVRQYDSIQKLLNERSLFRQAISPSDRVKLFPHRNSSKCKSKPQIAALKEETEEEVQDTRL

| SMILES | ΔF508-CFTR function (ΔF508-CFTR) | restoration of E92K-CFTR function (mutant CFTR) | V232D-CFTR biogenesis and function (V232D-CFTR) | increase in accumulation of CFTR^370 ([1]; 4 hours) [fold] | increase in accumulation of CFTR^530 ([1]; 4 hours) [fold] | sensitivity of CFTR^430 accumulation to proteasome inhibition ([1]; 4 hours) | sensitivity of CFTR^653 accumulation to proteasome inhibition ([1]; 4 hours) | effect of proteasome inhibition on CFTR^370 [1, 2] | effect of proteasome inhibition on CFTR^530 [1, 2] |
| --- | --- | --- | --- | --- | --- | --- | --- | --- | --- |
| COc1ccc(Cl)cc1Nc1nc(-c2sc(NC(=O)c3ccccc3)nc2C)cs1 [Corr-4a] | partially restored | could not restore | to normal levels | – | – | – | – | – | – |
| CC(C)C[C@H](NC(=O)[C@H](Cc1ccccc1)NC(=O)c1cnccn1)B(O)O [bortezomib] | – | – | – | 10 | 10 | relatively insensitive | relatively insensitive | more susceptible; also recorded: able to increase the stability | more susceptible |

Source: US20160074374A1, “CORRECTORS ACTING THROUGH MSD1 OF CFTR PROTEIN” (VERTEX PHARMACEUTICALS INCORPORATED, priority 2013, published 2016)
